Experimental data taken from patent publication USRE47689E1, “Compounds for treating spinal muscular atrophy” (PTC Therapeutics, Inc., priority 2011, dated 2019).

Key:
[1] = tested on: SMN2 minigene (full length SMN2 minigene mRNA containing SMN2 exon 7); assay: SMN2 minigene mRNA splicing RT-qPCR assay in cultured cells; format: cell-based, human; details: Homo sapiens, HEK293-H; HEK293H cells stably transfected with SMN2-A minigene; 24 hours; 7-point concentration curve; 1.5-fold relative to vehicle-treated cells; read-out: EC1.5x for production of full length SMN2 mRNA
Method in brief: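 Lysates → one-step RT-qPCR, minigene-specific primers (0.4 μM final) + GAPDH multiplex, 40 cycles. FL/GAPDH vs DMSO; EC1.5x, star-binned.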

Smn protein = Smn protein assay in cultured cells (SMN HTRF); format: cell-based, human; details: 48 hours; for maximum fold (Fold) increase of Smn protein: SMA patient fibroblast cells, 7-point concentration data, fold increase relative to vehicle control (SMN HTRF); for EC1.5x (concentration giving 1.5-fold Smn protein increase): SMA Type 1 patient fibroblast cells (GM03813), 7-point concentration curve, SMN HTRF, concentration producing 1.5 times Smn protein vs DMSO vehicle control, read-out: EC1.5x for Smn protein expression
Method in brief: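 Smn in SMA fibroblast lysates, measured by anti-SMN HTRF after 48 h compound exposure; EC1.5x from fold change over vehicle.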

Compound: Cc1ccc2nc(-c3cc4ccc(N5CCN[C@H](C)C5)cc4oc3=O)cn2c1 [Compound 220, 3-(6-methylimidazo[1,2-a]pyridin-2-yl)-7-[(3R)-3-methylpiperazin-1-yl]-2H-chromen-2-one]
- melting point: 185 to 188 °C
- EC (1.5-fold) [1]: 0.1 to 0.3 µM
- maximum fold (Fold) increase of Smn protein (Smn protein): ** (fold increase between >1.2 and ≤1.35)

Compound: CN1CCCN(c2ccc3cc(-c4cn5cc(Cl)sc5n4)c(=O)oc3c2)CC1 [Compound 479, 3-(2-chloroimidazo[2,1-b][1,3]thiazol-6-yl)-7-(4-methyl-1,4-diazepan-1-yl)-2H-chromen-2-one]
- melting point: 229 to 232 °C
- EC (1.5-fold) [1]: 0.3 to 1 µM
- maximum fold (Fold) increase of Smn protein (Smn protein): * (maximum fold increase of ≤1.2)

Compound: Cc1cn2cc(-c3cc4ccc(N5CC(N6CCCCC6C)C5)cc4oc3=O)nc2c(C)n1 (stereo not drawn) [Compound 942, 3-(6,8-dimethylimidazo[1,2-a]pyrazin-2-yl)-7-[3-(2-methylpiperidin-1-yl)azetidin-1-yl]-2H-chromen-2-one]
- melting point: 220 to 228 °C
- EC (1.5-fold) [1]: < 0.1 µM
- EC1.5x (concentration giving 1.5-fold Smn protein increase) (Smn protein): 1000 to 3000 nM
- maximum fold (Fold) increase of Smn protein (Smn protein): *** (fold increase between >1.35 and ≤1.5)

Compound: Cc1cn2cc(-c3cc4ccc(N5CC6CC5CN6)cc4oc3=O)cc2c(C)n1 (stereo not drawn) [Compound 783, 7-(2,5-diazabicyclo[2.2.1]hept-2-yl)-3-(1,3-dimethylpyrrolo[1,2-a]pyrazin-7-yl)-2H-chromen-2-one]
- melting point: 236 to 239 °C
- EC (1.5-fold) [1]: < 0.1 µM
- maximum fold (Fold) increase of Smn protein (Smn protein): *** (fold increase between >1.35 and ≤1.5)

Compound: CN1CCN(c2ccc3cc(-c4cn5cnccc5n4)c(=O)oc3c2)CC1 [Cpd 458, 3-(imidazo[1,2-c]pyrimidin-2-yl)-7-(4-methylpiperazin-1-yl)-2H-chromen-2-one]
- melting point: 253 to 255 °C
- EC (1.5-fold) [1]: 0.3 to 1 µM
- maximum fold (Fold) increase of Smn protein (Smn protein): *** (fold increase between >1.35 and ≤1.5)

Compound: CN1CCCN(c2ccc3cc(-c4cn5cc(C6CC6)cc(F)c5n4)c(=O)oc3c2)CC1 [Compound 499, 3-(6-cyclopropyl-8-fluoroimidazo[1,2-a]pyridin-2-yl)-7-(4-methyl-1,4-diazepan-1-yl)-2H-chromen-2-one]
- melting point: 234 to 244 °C
- EC (1.5-fold) [1]: 0.3 to 1 µM
- maximum fold (Fold) increase of Smn protein (Smn protein): * (maximum fold increase of ≤1.2)

Compound: Cc1cn2cc(-c3cc4ccc(CCCNCC5CCCO5)cc4oc3=O)nc2c(C)n1 (stereo not drawn) [Compound 932, 3-(6,8-dimethylimidazo[1,2-a]pyrazin-2-yl)-7-{3-[(tetrahydrofuran-2-ylmethyl)amino]propyl}-2H-chromen-2-one]
- melting point: 147 to 150 °C
- EC (1.5-fold) [1]: < 0.1 µM
- EC1.5x (concentration giving 1.5-fold Smn protein increase) (Smn protein): < 300 nM
- maximum fold (Fold) increase of Smn protein (Smn protein): **** (fold increase between >1.5 and ≤1.65)

Compound: O=c1oc2cc(N3CCCNCC3)ccc2cc1-c1cn2ccncc2n1 [Compound 454, 7-(1,4-diazepan-1-yl)-3-(imidazo[1,2-a]pyrazin-2-yl)-2H-chromen-2-one]
- melting point: 247 to 249 °C
- EC (1.5-fold) [1]: < 0.1 µM
- EC1.5x (concentration giving 1.5-fold Smn protein increase) (Smn protein): 3000 to 10000 nM
- maximum fold (Fold) increase of Smn protein (Smn protein): *** (fold increase between >1.35 and ≤1.5)

Compound: Cc1cn2cc(-c3cc4ccc(N5C[C@H]6CCN(C)[C@H]6C5)cc4oc3=O)cc2c(C)n1 [Compound 755, 3-(1,3-dimethylpyrrolo[1,2-a]pyrazin-7-yl)-7-[(3aR,6aR)-1-methylhexahydropyrrolo[3,4-b]pyrrol-5(1H)-yl]-2H-chromen-2-one]
- melting point: 196 to 198 °C
- EC (1.5-fold) [1]: < 0.1 µM
- maximum fold (Fold) increase of Smn protein (Smn protein): *** (fold increase between >1.35 and ≤1.5)

Compound: Cc1csc(-c2cc3ccc(N4CCCNCC4)cc3oc2=O)n1 [Compound 284, 7-(1,4-diazepan-1-yl)-3-(4-methyl-1,3-thiazol-2-yl)-2H-chromen-2-one]
- melting point: 195 to 203 °C
- EC (1.5-fold) [1]: 1 to 3 µM
- maximum fold (Fold) increase of Smn protein (Smn protein): * (maximum fold increase of ≤1.2)

Compound: Cc1ccn2cc(-c3cc4ccc(N5CCNC6(CCCC6)C5)cc4oc3=O)nc2c1 [Compound 596, 7-(6,9-diazaspiro[4.5]dec-9-yl)-3-(7-methylimidazo[1,2-a]pyridin-2-yl)-2H-chromen-2-one]
- melting point: 180 °C
- EC (1.5-fold) [1]: 0.3 to 1 µM
- maximum fold (Fold) increase of Smn protein (Smn protein): ** (fold increase between >1.2 and ≤1.35)

Compound: O=c1oc2cc(N3CCNCC3)ccc2cc1-c1cc(F)cc(F)c1 [Compound 291, 3-(3,5-difluorophenyl)-7-(piperazin-1-yl)-2H-chromen-2-one]
- melting point: 202 to 206 °C
- EC (1.5-fold) [1]: 0.3 to 1 µM
- maximum fold (Fold) increase of Smn protein (Smn protein): * (maximum fold increase of ≤1.2)

Compound: CCc1nc(C)cn2cc(-c3cc4ccc(N5CCN(C)CC5)cc4oc3=O)nc12 [Compound 830, 3-(8-ethyl-6-methylimidazo[1,2-a]pyrazin-2-yl)-7-(4-methylpiperazin-1-yl)-2H-chromen-2-one]
- melting point: 210 to 215 °C
- EC (1.5-fold) [1]: < 0.1 µM
- EC1.5x (concentration giving 1.5-fold Smn protein increase) (Smn protein): < 300 nM
- maximum fold (Fold) increase of Smn protein (Smn protein): ***** (fold increase >1.65)

Compound: Cc1cc(F)c2nc(-c3cc4ccc(N5CCN(C)[C@H](C)C5)cc4oc3=O)cn2c1 [Compound 533, 7-[(3R)-3,4-dimethylpiperazin-1-yl]-3-(8-fluoro-6-methylimidazo[1,2-a]pyridin-2-yl)-2H-chromen-2-one]
- melting point: 269 to 277 °C
- EC (1.5-fold) [1]: < 0.1 µM
- EC1.5x (concentration giving 1.5-fold Smn protein increase) (Smn protein): < 300 nM
- maximum fold (Fold) increase of Smn protein (Smn protein): **** (fold increase between >1.5 and ≤1.65)

Compound: COc1cccc(-c2cc3c(F)cc(N4CCN[C@@H](C)C4)cc3oc2=O)n1 [Compound 469, 5-fluoro-3-(6-methoxypyridin-2-yl)-7-[(3S)-3-methylpiperazin-1-yl]-2H-chromen-2-one]
- melting point: 199 to 201 °C
- EC (1.5-fold) [1]: 0.1 to 0.3 µM
- maximum fold (Fold) increase of Smn protein (Smn protein): ** (fold increase between >1.2 and ≤1.35)

Compound: CN1CCCN(c2ccc3cc(-c4cn5cccc(Cl)c5n4)c(=O)oc3c2)CC1 [Compound 280, 3-(8-chloroimidazo[1,2-a]pyridin-2-yl)-7-(4-methyl-1,4-diazepan-1-yl)-2H-chromen-2-one]
- melting point: 161 to 163 °C
- EC (1.5-fold) [1]: 0.1 to 0.3 µM
- maximum fold (Fold) increase of Smn protein (Smn protein): *** (fold increase between >1.35 and ≤1.5)

Compound: Cc1csc2nc(-c3cc4ccc(N5CCNCC5)cc4oc3=O)cn12 [Compound 98, 3-(3-methylimidazo[2,1-b][1,3]thiazol-6-yl)-7-(piperazin-1-yl)-2H-chromen-2-one]
- melting point: > 300 °C
- EC (1.5-fold) [1]: 1 to 3 µM
- EC1.5x (concentration giving 1.5-fold Smn protein increase) (Smn protein): 1000 to 3000 nM
- maximum fold (Fold) increase of Smn protein (Smn protein): *** (fold increase between >1.35 and ≤1.5)

Compound: Cc1csc(-c2cc3ccc(N4CCCN(C)CC4)cc3oc2=O)n1 [Compound 285, 7-(4-methyl-1,4-diazepan-1-yl)-3-(4-methyl-1,3-thiazol-2-yl)-2H-chromen-2-one]
- melting point: 190 to 200 °C
- EC (1.5-fold) [1]: 1 to 3 µM
- maximum fold (Fold) increase of Smn protein (Smn protein): * (maximum fold increase of ≤1.2)

Compound: Cc1csc2nc(-c3cc4ccc(N5CCCN(C)CC5)cc4oc3=O)cn12 [Compound 179, 7-(4-methyl-1,4-diazepan-1-yl)-3-(3-methylimidazo[2,1-b][1,3]thiazol-6-yl)-2H-chromen-2-one]
- melting point: 182 to 185 °C
- EC (1.5-fold) [1]: 1 to 3 µM
- maximum fold (Fold) increase of Smn protein (Smn protein): *** (fold increase between >1.35 and ≤1.5)
